Results from ChEMBL document CHEMBL4428037 (J Med Chem, 2016).
pIC50: −log10 of the molar value. The source made the active and inactive calls. The calls are words filed in the database; no cut-off is given here.

Assays:
[1] = system: HepG2; assay: Growth inhibition of human HepG2 cells incubated for 72 hrs by MTT assay; type: functional, cell-based; conditions: HepG2, 72 h
[2] = system: HeLa; assay: Growth inhibition of human HeLa cells incubated for 72 hrs by MTT assay; type: functional, cell-based
[3] = system: PC-3; assay: Growth inhibition of human PC3 cells incubated for 72 hrs by MTT assay; type: functional, cell-based; conditions: PC-3, 72 h
[4] = system: MCF7; assay: cells; conditions: Homo sapiens, MCF7, 72 h
[5] = biological target: Tubulin (Sus scrofa, UniProt P02554+P02550); assay: (§1) Inhibition of porcine brain tubulin polymerization incubated for 60 mins by fluorescence-based assay
[6] = biological target: T1, Tubulin (Sus scrofa) (UniProt P02554+P02550); assay: Displacement of [3H]colchicine from biotinylated porcine tubulin at 1 uM incubated for 2 hrs by competition scintillation proximity; type: protein assay
[7] = biological target: T1, Tubulin (Sus scrofa); assay: Displacement of [3H]colchicine from biotinylated porcine tubulin at 5 uM incubated for 2 hrs by competition scintillation proximity; type: protein assay
[8] = system: A549; assay: Growth inhibition of human A549 cells incubated for 48 hrs by MTT assay; type: functional, cell-based; conditions: A549, 48 h
[9] = system: NCI-H460; assay: Growth inhibition of human NCI-H460 cells incubated for 48 hrs by MTT assay; type: functional, cell-based; conditions: NCI-H460, 48 h
[10] = biological target: T2, Tubulin alpha (Homo sapiens) (UniProt P0DPH7+P68366+Q71U36+P68363+Q9BQE3+Q6PEY2+A6NHL2+Q9NY65); assay: Inhibition of alpha tubulin polymerization in human A549 cells assessed as induction of microtubule network dis-organization at 40 nM by Immunofluorescent staining based fluorescence microscopy; type: cell-based
[11] = biological target: T2, Tubulin alpha (Homo sapiens); assay: Inhibition of alpha tubulin polymerization in human A549 cells assessed as induction of cell border shrinkage of microtubules at 40 nM by Immunofluorescent staining based fluorescence microscopy
[12] = system: A549; assay: Induction of cell cycle arrest in human A549 cells assessed as accumulation at G2/M phase at 40 nM incubated for 24 hrs by propidium iodide staining based FACS flow cytometry; type: functional
[13] = system: A549; assay: Induction of apoptosis in human A549 cells assessed as induction of cytoplasmic membrane blebbing at 40 nM incubated for 24 hrs microscopy; type: functional, cell-based
[14] = system: A549; assay: Induction of apoptosis in human A549 cells assessed as induction of cell shrinkage at 40 nM incubated for 24 hrs microscopy; type: functional, cell-based
[15] = system: A549; assay: Induction of apoptosis in human A549 cells assessed as induction of nucleus fragmentation at 40 nM incubated for 24 hrs microscopy; type: functional, cell-based
[16] = system: A549; assay: Induction of apoptosis in human A549 cells assessed as induction of chromatin condensation at 40 nM incubated for 24 hrs microscopy; type: functional, cell-based
[17] = system: A549; assay: Induction of apoptosis in human A549 cells assessed as live cells level at 40 nM incubated for 24 hrs by Annexin V-FITC/PI staining based FACS flow cytometry (reference value: 96.83%); type: functional
[18] = system: A549; assay: Induction of apoptosis in human A549 cells assessed as early apoptotic cells level at 40 nM incubated for 24 hrs by Annexin V-FITC/PI staining based FACS flow cytometry (reference value: 0.65%); type: functional
[19] = system: A549; assay: Induction of apoptosis in human A549 cells assessed as late apoptotic cells level at 40 nM incubated for 24 hrs by Annexin V-FITC/PI staining based FACS flow cytometry (reference value: 2.15%); type: functional
[20] = system: A549; assay: Induction of apoptosis in human A549 cells assessed as necrotic cells level at 40 nM incubated for 24 hrs by Annexin V-FITC/PI staining based FACS flow cytometry (reference value: 0.37%); type: functional
[21] = biological target: T1, Tubulin (Sus scrofa); assay: as §1

Structure (SMILES): CCOc1cccc(Nc2nn(C)c3c2Cc2cc(OCC)c(OCC(=O)NCCN(C)C)cc2-3)c1
- pIC50 [1]: 6.47
- pIC50 [2]: 6.43
- pIC50 [3]: 6.34
- pIC50 [4]: 5.52

Structure (SMILES): CCOc1cccc(Nc2nn(C)c3c2Cc2cc(OCC)c(OCC(=O)NCCO)cc2-3)c1
- pIC50 [1]: 5.74
- pIC50 [2]: 6.38
- pIC50 [3]: 5.43
- pIC50 [4]: 6.18

Structure (SMILES): CCOc1cccc(Nc2nn(C)c3c2Cc2cc(OCC)c(OCC(=O)NOC)cc2-3)c1
- pIC50 [1]: 6.07
- pIC50 [2]: 6.33
- pIC50 [3]: 5.54
- pIC50 [4]: 5.78

Structure (SMILES): CCOc1cccc(Nc2nn(C)c3c2Cc2cc(OCC)c(OCC(=O)NN)cc2-3)c1
- pIC50 [1]: 6.40
- pIC50 [2]: 6.46
- pIC50 [3]: 6.12
- pIC50 [4]: 6.24

Structure (SMILES): CC(=O)O[C@H]1C(=O)[C@@]2(C)[C@H]([C@H](OC(=O)c3ccccc3)[C@]3(O)C[C@H](OC(=O)[C@H](O)[C@@H](NC(=O)c4ccccc4)c4ccccc4)C(C)=C1C3(C)C)[C@]1(OC(C)=O)CO[C@@H]1C[C@@H]2O [PACLITAXEL]
- pIC50 [2]: 7.74
- pIC50 [3]: 7.68

Structure (SMILES): COc1ccc(S(=O)(=O)Nc2cccnc2Nc2ccc(O)cc2)cc1 [ABT-751]
- pIC50 [1]: 6.35
- pIC50 [2]: 6.45
- pIC50 [3]: 6.34
- IC50 [5]: 2790 nM
- inhibition [6]: 39%
- inhibition [7]: 68%
- pIC50 [4]: 5.42

Structure (SMILES): CCOc1cccc(Nc2nn(C)c3c2Cc2cc(OCC)c(OCC(=O)NCCN)cc2-3)c1
- pIC50 [1]: 5.85
- pIC50 [2]: 6.06
- pIC50 [3]: 5.82
- pIC50 [4]: 5.73

Structure (SMILES): CCOc1cccc(Nc2nn(C)c3c2Cc2cc(OCC)c(OCC(=O)NC)cc2-3)c1
- pIC50 [1]: 6.85
- pIC50 [2]: 7.05
- pIC50 [3]: 6.19
- pIC50 [4]: 6.05

Structure (SMILES): CCOc1cccc(Nc2nn(C)c3c2Cc2cc(OCC)c(OCC(=O)NCCOC)cc2-3)c1
- pIC50 [1]: 6.35
- pIC50 [2]: 6.31
- pIC50 [3]: 6.10
- pIC50 [4]: 5.82

Structure (SMILES): CCOc1cccc(Nc2nn(C)c3c2Cc2cc(OCC)c(OCC(=O)N(C)C)cc2-3)c1
- pIC50 [1]: 6.04
- pIC50 [2]: 6.14
- pIC50 [3]: 5.75
- pIC50 [4]: 5.21

Structure (SMILES): CCNC(=O)COc1cc2c(cc1OCC)Cc1c(Nc3cccc(OCC)c3)nn(C)c1-2
- pIC50 [1]: 5.88
- pIC50 [2]: 6.21
- pIC50 [3]: 5.43
- pIC50 [4]: 5.83

Structure (SMILES): COc1cc2c(c(OC)c1OC)-c1ccc(OC)c(=O)cc1[C@@H](NC(C)=O)CC2 [COLCHICINE]
- pIC50 [1]: 7.72
- pIC50 [2]: 8.12
- pIC50 [8]: 7.23
- pIC50 [9]: 7.31
- inhibition [10]: Active
- inhibition [11]: Active
- Activity [12]: 37%
- Activity [13]: Active
- Activity [14]: Active
- Activity [15]: Active
- Activity [16]: Active
- Activity [17]: 84.59%
- Activity [18]: 8.38%
- Activity [19]: 5.89%
- Activity [20]: 1.14%
- pIC50 [4]: 7.33

Structure (SMILES): CCOc1cccc(Nc2nn(C)c3c2Cc2cc(OCC)c(OCC(=O)NO)cc2-3)c1
- pIC50 [1]: 7.79
- pIC50 [2]: 7.88
- pIC50 [3]: 7.63
- inhibition [21]: Dose-dependent effect
- IC50 [5]: 5330 nM
- inhibition [6]: 31%
- inhibition [7]: 63%
- pIC50 [4]: 7.47

Structure (SMILES): COc1ccc(/C=C\c2cc(OC)c(OC)c(OC)c2)cc1O [COMBRETASTATIN A4]
- pIC50 [1]: 8.68
- pIC50 [3]: 8.47
- pIC50 [8]: 7.31
- pIC50 [9]: 7.45
- inhibition [7]: 92%
- pIC50 [4]: 7.90

Structure (SMILES): C#CCNC(=O)COc1cc2c(cc1OCC)Cc1c(Nc3cccc(OCC)c3)nn(C)c1-2
- pIC50 [1]: 6.23
- pIC50 [2]: 6.30
- pIC50 [3]: 5.75
- pIC50 [4]: 5.68

Structure (SMILES): C=CCNC(=O)COc1cc2c(cc1OCC)Cc1c(Nc3cccc(OCC)c3)nn(C)c1-2
- pIC50 [1]: 6.07
- pIC50 [2]: 6.16
- pIC50 [3]: 5.71
- pIC50 [4]: 6.12

Structure (SMILES): CCOc1cccc(Nc2nn(C)c3c2Cc2cc(OCC)c(OCC(=O)NCC4CC4)cc2-3)c1
- pIC50 [1]: 5.77
- pIC50 [2]: 5.49
- pIC50 [3]: 5.34
- pIC50 [4]: < 4.30

Structure (SMILES): CCOc1cccc(Nc2nn(C)c3c2Cc2cc(OCC)c(OCC(=O)NC4CC4)cc2-3)c1
- pIC50 [1]: 6.19
- pIC50 [2]: 6.14
- pIC50 [3]: 5.85
- pIC50 [4]: 5.51

Structure (SMILES): CCOc1cccc(Nc2nn(C)c3c2Cc2cc(OCC)c(OCC(=O)NCCC#N)cc2-3)c1
- pIC50 [1]: 5.62
- pIC50 [2]: 5.84
- pIC50 [3]: 5.07
- pIC50 [4]: 5.34
